Measurements published in patent US6924301B1, “Composition for treating or preventing arrhythmia” (Shionogi & Co., Ltd., priority 1999, dated 2005).
pIC50: −log10 of the molar value.

How the values were obtained:
cPLA2 = target: T1, cPLA2 (Homo sapiens, UniProt P47712); assay: cPLA2 inhibitory activity; format: biochemical; details: for IC60: 0.25 h, Table 10, same assay
T1 sequence (P47712 1-749): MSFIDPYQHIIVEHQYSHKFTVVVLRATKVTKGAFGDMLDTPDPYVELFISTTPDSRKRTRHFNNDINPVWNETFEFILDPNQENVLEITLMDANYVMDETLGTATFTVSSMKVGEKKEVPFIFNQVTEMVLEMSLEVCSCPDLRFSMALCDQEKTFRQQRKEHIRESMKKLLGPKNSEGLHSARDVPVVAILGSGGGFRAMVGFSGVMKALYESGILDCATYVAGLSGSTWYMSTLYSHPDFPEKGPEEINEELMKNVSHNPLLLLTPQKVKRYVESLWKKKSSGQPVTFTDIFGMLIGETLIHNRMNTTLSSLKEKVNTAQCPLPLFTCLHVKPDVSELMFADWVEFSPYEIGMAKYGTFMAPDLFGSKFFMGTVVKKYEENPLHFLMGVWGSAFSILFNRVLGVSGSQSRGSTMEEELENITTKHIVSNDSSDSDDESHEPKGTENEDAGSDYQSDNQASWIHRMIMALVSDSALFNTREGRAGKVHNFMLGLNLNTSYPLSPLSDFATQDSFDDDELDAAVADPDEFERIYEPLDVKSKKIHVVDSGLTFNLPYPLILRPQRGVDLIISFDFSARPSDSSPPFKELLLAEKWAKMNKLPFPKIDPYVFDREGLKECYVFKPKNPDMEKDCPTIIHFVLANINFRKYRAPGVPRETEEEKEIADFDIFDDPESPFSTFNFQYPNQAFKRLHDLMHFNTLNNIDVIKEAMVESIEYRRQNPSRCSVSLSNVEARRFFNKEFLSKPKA
Procedure: The compounds of the present invention were tested for the cPLA2 inhibitory activity according to the method disclosed in […]. Roberts, […], and J. E. Putnam, J. Biol. Chem., 1991, 266, 5268-5272 as outlined below. […] The reaction mixture includes 50 mM HEPES buffer (pH 7.5), 1 mM calcium chloride, 150 mM sodium chloride, 0.1 mg/ml bovine serum albumin, and 1.7 mM dithiothreitol. To the reaction mixture was added the compound of the present invention and the substrate solution. The reaction was allowed to start by adding an enzyme and continued for 15 min at 37° C. The fatty acids released by the reaction were extracted by the method described in V. P. Dole, and H. Meinertz, J. Biol. Chem., 1960, 235, 2595-2599 and its radiation activity was measured on a liquid scintillation counter. Control was obtained by conducting the experiment in the same manner except that a compound of the present invention was not added.

Wistar male rats = assay: Arrhythmia induced by ischemia-reperfusion (coronary ligation 3 min, 10 min reperfusion) in anesthetized rats; format: in vivo, rat; details: for ventricular fibrillation / ventricular tachycardia: total duration during 10 min reperfusion, mean±S.D.; for effect on ventricular tachycardia induced by ischemia-reperfusion: summary in words of Tables 11 and 12, vs vehicle
Procedure: The utility of the present invention for treating or preventing arrhythmia was confirmed in a manner similar to that described in Circulation Research 56: 545-548, 1984.
Wistar male rats are used as experimental animals. Anesthesia of animal is induced by administration of 30 mg/kg to 60 mg/kg, preferably 40 mg/kg of pentobarbital sodium (preferably intraperitoneal injection). A catheter for the administration of drugs is placed in the jugular vein. Electrocardiogram (ECG) is recorded from lead II during cardiac ischemia and reperfusion. A thoracotomy is performed under artificial ventilation. Left coronary artery is ligated with silicon tube for 3 to 5 min, preferably 3 min. Reperfusion is performed by cutting snare. Total duration of ventricular tachycardia and ventricular fibrillation during 5 to 30 min, preferably 10 min reperfusion are evaluated. Test compounds are dissolved in solvent containing 10% DMSO, 10% ethanol, 30% polyethylene glycol and 50% distilled water and sodium hydrocarbonate is added to the solution to adjust final concentration to 0 to 1%, preferably 0.5%. Drugs are administrated intravenously in bolus at 15 to 60 min, preferably 30 min before reperfusion followed by 30 to 40 min, preferably 40 min infusion.
Wistar male rats (weight 250-350 g) were used. The compound (C-4) (the compound M-17 described in WO98/33797) and the compound (B-1) shown below were dissolved in solvent containing DMSO:ethanol:polyethylene glycol 300:1% aqueous sodium hydrogen carbonate solution=10:10:30:50 (volume ratio). Anesthesia was induced with intraperitoneal injection of 40 mg/kg of pentobarbital sodium. A catheter for the administration of drugs was placed in the jugular vein. Electrocardiogram (ECG) was recorded from lead II during cardiac ischemia and 10 min reperfusion. Drugs were administrated intravenously in bolus at 30 min before reperfusion followed by 40 min infusion. Solvent containing DMSO:ethanol:polyethylene glycol 300:1% aqueous sodium hydrogen carbonate solution=10:10:30:50 (volume ratio) was administrated as vehicle in a administration experiment. A thoracotomy was performed under artificial ventilation. Left coronary artery was ligated with silicon tube for 3 min. Reperfusion was performed by cutting snare. Total duration of ventricular tachycardia (VT) and ventricular fibrillation (VF) during 10 min reperfusion were evaluated.
Data are expressed as mean±S.D. Statistical analysis was performed with Welch's t-test. A value of P<0.05 was considered significant. Compound (C-4) [drawing 73]

[1] = Bolus (i.v.) + Infusion (i.v.) 0.001 mg/kg + 0.001 mg/kg/hr
[2] = Bolus (i.v.) + Infusion (i.v.) 0.01 mg/kg + 0.01 mg/kg/hr
[3] = Bolus (i.v.) + Infusion (i.v.) 0.1 mg/kg + 0.1 mg/kg/hr

Compound | pIC50 (cPLA2; 1-palmitoyl-2-[14C]-arachidonoyl-sn-glycero-3-phosphocholine liposomes, 15 min at 37° C.) | ventricular fibrillation (Wistar male rats; [1]) | ventricular tachycardia (Wistar male rats; [1]) | ventricular fibrillation (Wistar male rats; [2]) | ventricular tachycardia (Wistar male rats; [2]) | ventricular fibrillation (Wistar male rats; [3]) | ventricular tachycardia (Wistar male rats; [3]) | effect on ventricular tachycardia induced by ischemia-reperfusion (Wistar male rats) | melting point | IC60 (cPLA2)
O=C1NC(=O)/C(=C/c2ccc(C(=O)NC[C@@H]3C[C@@H](SC(c4ccccc4)(c4ccccc4)c4ccccc4)CN3C(=O)c3ccccc3C(=O)c3ccc(F)cc3F)cc2)S1 [Compound B-1] | 8.43 | 44.5 ± 133.3 s | 54.8 ± 100.9 s | 56.5 ± 169.5 s | 31.1 ± 62.3 s | 0.0 ± 0.0 s | 0.4 ± 0.9 s | significantly reduced | 158 to 160 °C | 
O=C(/C=C/c1ccc(/C=C2\SC(=O)NC2=O)cc1)NC[C@@H]1C[C@@H](Oc2ccccc2C(c2ccccc2)c2ccccc2)CN1C(=O)c1ccccc1C(=O)c1ccc(F)cc1F [Compound C-2] |  |  |  |  |  |  |  |  |  | 3.8 nM
O=C1NC(=O)/C(=C/c2ccc(/C=C/CNC(=O)[C@@H]3C[C@@H](SC(c4ccccc4)(c4ccccc4)c4ccccc4)CN3C(=O)c3ccccc3C(=O)c3ccc(F)cc3F)cc2)S1 [Compound C-3] |  |  |  |  |  |  |  |  |  | 5.4 nM
CC(C)CN(C(c1ccccc1)c1ccccc1)[C@@H]1C[C@@H](CNC(=O)c2ccc(/C=C3\SC(=O)NC3=O)cc2)N(C(=O)c2ccccc2C(=O)c2ccc(F)cc2F)C1 [Compound C-4] |  | 15.1 ± 41.2 s | 28.7 ± 50.3 s | 1.6 ± 2.9 s | 7.6 ± 9.4 s | 0.2 ± 0.4 s | 5.1 ± 9.3 s | significantly reduced |  | 
